Test results reported in patent publication US10758534B2 (Vertex Pharmaceuticals Incorporated, priority 2014, dated 2020).

Biological target: T1, F508del (Homo sapiens, UniProt P13569, DEL508-508)
T1 construct: expressed in transfected cells
Test: Protocol 1: membrane potential optical assay (FLIPR III, voltage sensing dye), identification of potentiator compounds
Type: cell-based
Settings: Table 3, compounds of Table 1
How it was run: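 Mouse NIH 3T3 fibroblasts stably expressing F508del, temperature-corrected at 27 °C for 24 h, pretreated with compound, then loaded with voltage-sensing redistribution dye. Forskolin was added in a single step with a chloride gradient (chloride-free gluconate bath; Bath Solution #1 HEPES pH 7.4). Membrane-potential fluorescence read on FLIPR III.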

T1 sequence (P13569 with tags, fused parts or gaps DEL508-508): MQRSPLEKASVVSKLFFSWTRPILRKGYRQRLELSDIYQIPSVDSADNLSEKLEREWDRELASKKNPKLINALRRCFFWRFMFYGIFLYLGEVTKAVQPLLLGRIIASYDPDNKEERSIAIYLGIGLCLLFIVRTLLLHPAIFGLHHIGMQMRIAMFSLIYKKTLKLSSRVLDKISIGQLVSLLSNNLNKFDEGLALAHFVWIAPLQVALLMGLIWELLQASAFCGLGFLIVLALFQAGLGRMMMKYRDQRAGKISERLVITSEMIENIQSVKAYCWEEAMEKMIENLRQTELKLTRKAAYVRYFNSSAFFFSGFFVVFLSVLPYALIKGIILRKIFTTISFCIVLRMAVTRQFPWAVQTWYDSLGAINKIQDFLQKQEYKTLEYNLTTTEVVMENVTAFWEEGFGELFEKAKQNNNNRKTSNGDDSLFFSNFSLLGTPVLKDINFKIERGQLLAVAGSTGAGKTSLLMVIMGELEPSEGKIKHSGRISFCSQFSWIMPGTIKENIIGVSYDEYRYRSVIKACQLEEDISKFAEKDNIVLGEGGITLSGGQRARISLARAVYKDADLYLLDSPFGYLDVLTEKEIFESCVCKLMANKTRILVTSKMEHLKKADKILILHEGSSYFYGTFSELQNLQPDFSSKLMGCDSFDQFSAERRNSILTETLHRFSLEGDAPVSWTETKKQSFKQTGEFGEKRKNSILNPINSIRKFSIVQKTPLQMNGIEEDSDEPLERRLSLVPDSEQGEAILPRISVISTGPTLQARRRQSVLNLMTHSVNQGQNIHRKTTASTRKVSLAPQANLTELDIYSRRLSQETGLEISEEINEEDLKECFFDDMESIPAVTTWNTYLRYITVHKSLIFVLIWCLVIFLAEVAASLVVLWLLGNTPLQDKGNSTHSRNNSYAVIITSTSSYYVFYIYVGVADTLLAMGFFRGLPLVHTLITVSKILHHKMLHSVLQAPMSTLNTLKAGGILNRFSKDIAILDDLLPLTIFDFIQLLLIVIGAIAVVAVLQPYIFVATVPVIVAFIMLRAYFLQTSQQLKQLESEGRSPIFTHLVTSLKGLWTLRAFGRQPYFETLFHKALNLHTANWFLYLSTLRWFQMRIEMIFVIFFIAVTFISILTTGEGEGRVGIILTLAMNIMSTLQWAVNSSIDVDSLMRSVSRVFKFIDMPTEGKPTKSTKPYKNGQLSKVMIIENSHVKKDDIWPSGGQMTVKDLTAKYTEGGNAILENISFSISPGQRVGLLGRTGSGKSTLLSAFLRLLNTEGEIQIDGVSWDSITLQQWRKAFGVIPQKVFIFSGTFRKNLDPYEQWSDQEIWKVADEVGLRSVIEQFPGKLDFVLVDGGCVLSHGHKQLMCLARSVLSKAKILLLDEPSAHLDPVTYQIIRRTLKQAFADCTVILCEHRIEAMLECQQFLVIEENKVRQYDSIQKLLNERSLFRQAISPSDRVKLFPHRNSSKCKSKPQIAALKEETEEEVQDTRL

| Structure (SMILES) | EC30 |
| --- | --- |
| CC(Nc1ncccc1C(=O)NS(=O)(=O)c1cccc(N)n1)c1cccc2ccccc12 (stereo not shown) [Compound 1769, N-[(6-amino-2-pyridyl)sulfonyl]-2-[1-(1-naphthyl)ethylamino]pyridine-3-carboxamide] | ++ (“++” means between 3 uM and 10 uM) |
| CC1CN(c2ncccc2C(=O)NS(=O)(=O)c2cccc(NCc3cc(F)ccc3F)n2)C(C)(C)C1 (stereo not shown) [Compound 1770, N—[[6-[(2,5-difluorophenyl)methylamino]-2-pyridyl]sulfonyl]-2-(2,2,4-trimethylpyrrolidin-1-yl)pyridine-3-carboxamide] | +++ (“+++” means <3 uM) |
| Cc1cc(C)cc(-c2ccc(C(=O)NS(=O)(=O)c3cccc(N)n3)c(N3C[C@@H](C)CC3(C)C)n2)c1 [Compound 1771, N-[(6-amino-2-pyridyl)sulfonyl]-6-(3,5-dimethylphenyl)-2-[(4S)-2,2,4-trimethylpyrrolidin-1-yl]pyridine-3-carboxamide] | +++ (“+++” means <3 uM) |
| Cc1ccccc1C1CCCCCN1c1ncccc1C(=O)NS(=O)(=O)c1cccc(N)n1 (stereo not shown) [Compound 1772, N-[(6-amino-2-pyridyl)sulfonyl]-2-[2-(o-tolyl)azepan-1-yl]pyridine-3-carboxamide] | ++ (“++” means between 3 uM and 10 uM) |
| CC1CN(c2ncccc2C(=O)NS(=O)(=O)c2cccc(N3CCN(C(=O)OC(C)(C)C)CC3)n2)C(C)(C)C1 (stereo not shown) [Compound 1773, tert-butyl 4-[6-[[2-(2,2,4-trimethylpyrrolidin-1-yl)pyridine-3-carbonyl]sulfamoyl]-2-pyridyl]piperazine-1-carboxylate] | +++ (“+++” means <3 uM) |
| CC(C)Oc1ccc(-c2ccc(C(=O)NS(=O)(=O)c3ccc[nH]c3=O)c(N3C[C@@H](C)CC3(C)C)n2)cc1 [Compound 1774, 6-(4-isopropoxyphenyl)-N-[(2-oxo-1H-pyridin-3-yl)sulfonyl]-2-[(4S)-2,2,4-trimethylpyrrolidin-1-yl]pyridine-3-carboxamide] | +++ (“+++” means <3 uM) |
| CC1CN(c2ncccc2C(=O)NS(=O)(=O)c2cccc(Nc3ccc4ncsc4c3)n2)C(C)(C)C1 (stereo not shown) [Compound 1775, N—[[6-(1,3-benzothiazol-6-ylamino)-2-pyridyl]sulfonyl]-2-(2,24-trimethylpyrrolidin-1-yl)pyridine-3-carboxamide] | +++ (“+++” means <3 uM) |
| CC1CN(c2ncccc2C(=O)NS(=O)(=O)c2cccc(N3CCCC4CCCCC43)n2)C(C)(C)C1 (stereo not shown) [Compound 1776, N—[[6-(3,4,4a,5,6,7,8,8a-octahydro-2H-quinolin-1-yl)-2-pyridyl]sulfonyl]-2-(2,2,4-trimethylpyrrolidin-1-yl)pyridine-3-carboxamide] | +++ (“+++” means <3 uM) |
| CC1CN(c2ncccc2C(=O)NS(=O)(=O)c2cccc(OCc3cc(-c4ccccc4)on3)n2)C(C)(C)C1 (stereo not shown) [Compound 1777, N—[[6-[(5-phenylisoxazol-3-yl)methoxy]-2-pyridyl]sulfonyl]-2-(2,2,4-trimethylpyrrolidin-1-yl)pyridine-3-carboxamide] | +++ (“+++” means <3 uM) |
| COc1ccc(COc2cccc(S(=O)(=O)NC(=O)c3cccnc3N3CC(C)CC3(C)C)n2)cc1Cl (stereo not shown) [Compound 1778, N—[[6-[(3-chloro-4-methoxy-phenyl)methoxy]-2-pyridyl]sulfonyl]-2-(2,2,4-trimethylpyrrolidin-1-yl)pyridine-3-carboxamide] | +++ (“+++” means <3 uM) |
| COc1c(F)cccc1-c1ccc(C(=O)NS(=O)(=O)c2ccc[nH]c2=O)c(N2C[C@@H](C)CC2(C)C)n1 [Compound 1779, 6-(3-fluoro-2-methoxy-phenyl)-N-[(2-oxo-1H-pyridin-3-yl)sulfonyl]-2-[(4S)-2,2,4-trimethylpyrrolidin-1-yl]pyridine-3-carboxamide] | +++ (“+++” means <3 uM) |
| COc1cc(-c2ccc(C(=O)NS(=O)(=O)c3ccc[nH]c3=O)c(N3C[C@@H](C)CC3(C)C)n2)ccc1F [Compound 1780, 6-(4-fluoro-3-methoxy-phenyl)-N-[(2-oxo-1H-pyridin-3-yl)sulfonyl]-2-[(4S)-2,2,4-trimethylpyrrolidin-1-yl]pyridine-3-carboxamide] | ++ (“++” means between 3 uM and 10 uM) |
| C#Cc1cccc(Oc2cccc(S(=O)(=O)NC(=O)c3cccnc3N3CC(C)CC3(C)C)n2)c1 (stereo not shown) [Compound 1782, N—[[6-(3-ethynylphenoxy)-2-pyridyl]sulfonyl]-2-(2,2,4-trimethylpyrrolidin-1-yl)pyridine-3-carboxamide] | +++ (“+++” means <3 uM) |
| CCOCCOCCOc1ncc(-c2ccc(C(=O)NS(=O)(=O)c3cccnc3N)c(N3C[C@@H](C)CC3(C)C)n2)cc1C [Compound 1783, N-[(2-amino-3-pyridyl)sulfonyl]-6-[6-[2-(2-ethoxyethoxy)ethoxy]-5-methyl-3-pyridyl]-2-[(4S)-2,2,4-trimethylpyrrolidin-1-yl]pyridine-3-carboxamide] | +++ (“+++” means <3 uM) |
| C[C@@H]1CN(c2nc(-c3ccccc3Cl)ccc2C(=O)NS(=O)(=O)c2ccc[nH]c2=O)C(C)(C)C1 [Compound 1784, 6-(2-chlorophenyl)-N-[(2-oxo-1H-pyridin-3-yl)sulfonyl]-2-[(4S)-2,2,4-trimethylpyrrolidin-1-yl]pyridine-3-carboxamide] | +++ (“+++” means <3 uM) |
| C[C@@H]1CN(c2nc(-c3ccc(OC(F)(F)F)cc3)ccc2C(=O)NS(=O)(=O)c2cccc(N)n2)C(C)(C)C1 [Compound 1785, N-[(6-amino-2-pyridyl)sulfonyl]-6-[4-(trifluoromethoxy)phenyl]-2-[(4S)-2,2,4-trimethylpyrrolidin-1-yl]pyridine-3-carboxamide] | +++ (“+++” means <3 uM) |
| COc1cccc(-c2ccc(C(=O)NS(=O)(=O)c3ccc[nH]c3=O)c(N3C[C@@H](C)CC3(C)C)n2)c1OC [Compound 1786, 6-(2,3-dimethoxyphenyl)-N-[(2-oxo-1H-pyridin-3-yl)sulfonyl]-2-[(4S)-2,2,4-trimethylpyrrolidin-1-yl]pyridine-3-carboxamide] | ++ (“++” means between 3 uM and 10 uM) |
| Cc1cc(-c2ccc(C(=O)NS(=O)(=O)c3cccc(N)n3)c(N3C[C@@H](C)CC3(C)C)n2)cnc1OCCOCCOCCOC(C)C [Compound 1787, N-[(6-amino-2-pyridyl)sulfonyl]-6-[6-[2-[2-(2-isopropoxyethoxy)ethoxy]ethoxy]-5-methyl-3-pyridyl]-2-[(4S)-2,2,4-trimethylpyrrolidin-1-yl]pyridine-3-carboxamide] | ++ (“++” means between 3 uM and 10 uM) |
| CC(C)COc1cc(F)cc(-c2ccc(C(=O)NS(=O)(=O)c3cccc(N)n3)c(N3CC(C(F)(F)F)CC3(C)C)n2)c1 (stereo not shown) [Compound 1788, N-[(6-amino-2-pyridyl)sulfonyl]-2-[2,2-dimethyl-4-(trifluoromethyl)pyrrolidin-1-yl]-6-(3-fluoro-5-isobutoxy-phenyl)pyridine-3-carboxamide] | +++ (“+++” means <3 uM) |
| CC(C)COc1cc(F)cc(-c2ccc(C(=O)NS(=O)(=O)N3CC4C[C@H]3CO4)c(N3C[C@@H](C)CC3(C)C)n2)c1 [Compound 1789, 6-(3-fluoro-5-isobutoxy-phenyl)-N—[[(4S)-2-oxa-5-azabicyclo[2.2.1]heptan-5-yl]sulfonyl]-2-[(4S)-2,2,4-trimethylpyrrolidin-1-yl]pyridine-3-carboxamide] | +++ (“+++” means <3 uM) |
| C[C@@H]1CN(c2nc(-c3ccccc3F)ccc2C(=O)NS(=O)(=O)c2cccnc2N)C(C)(C)C1 [Compound 1790, N-[(2-amino-3-pyridyl)sulfonyl]-6-(2-fluorophenyl)-2-[(4S)-2,2,4-trimethylpyrrolidin-1-yl]pyridine-3-carboxamide] | +++ (“+++” means <3 uM) |
| C[C@@H]1CN(c2nc(-c3cccc(Cl)c3)ccc2C(=O)NS(=O)(=O)c2ccc[nH]c2=O)C(C)(C)C1 [Compound 1791, 6-(3-chlorophenyl)-N-[(2-oxo-1H-pyridin-3-yl)sulfonyl]-2-[(4S)-2,2,4-trimethylpyrrolidin-1-yl]pyridine-3-carboxamide] | +++ (“+++” means <3 uM) |
| COc1ccc(-c2cnc(N3CC(C)CC3(C)C)c(C(=O)NS(=O)(=O)c3cccc(N)n3)c2)cc1 (stereo not shown) [Compound 1792, N-[(6-amino-2-pyridyl)sulfonyl]-5-(4-methoxyphenyl)-2-(2,2,4-trimethylpyrrolidin-1-yl)pyridine-3-carboxamide] | +++ (“+++” means <3 uM) |
| C[C@@H]1CN(c2nc(C3CC(C)(C)CCC3=O)ccc2C(=O)NS(=O)(=O)c2cccnc2N)C(C)(C)C1 (stereo partly drawn) [Compound 1793, N-[(2-amino-3-pyridyl)sulfonyl]-6-(5,5-dimethyl-2-oxo-cyclohexyl)-2-[(4S)-2,2,4-trimethylpyrrolidin-1-yl]pyridine-3-carboxamide] | +++ (“+++” means <3 uM) |
| CC1(C)C(CC2CC2)CCN1c1ncccc1C(=O)NS(=O)(=O)c1cccc(N)n1 (stereo not shown) [Compound 1794, N-[(6-amino-2-pyridyl)sulfonyl]-2-[3-(cyclopropylmethyl)-2,2-dimethyl-pyrrolidin-1-yl]pyridine-3-carboxamide] | ++ (“++” means between 3 uM and 10 uM) |
| CCOc1cc(C)cc(-c2ccc(C(=O)NS(=O)(=O)c3cccnc3N)c(Oc3c(C)cc(C)cc3C)n2)n1 [Compound 1795, N-[(2-amino-3-pyridyl)sulfonyl]-6-(6-ethoxy-4-methyl-2-pyridyl)-2-(2,4,6-trimethylphenoxy)pyridine-3-carboxamide] | +++ (“+++” means <3 uM) |
| CC1CN(c2ncccc2C(=O)NS(=O)(=O)c2cccc(Nc3cc(F)c(F)cc3F)n2)C(C)(C)C1 (stereo not shown) [Compound 1796, N—[[6-(2,4,5-trifluoroanilino)-2-pyridyl]sulfonyl]-2-(2,2,4-trimethylpyrrolidin-1-yl)pyridine-3-carboxamide] | +++ (“+++” means <3 uM) |
| Cc1cccc(C)c1Oc1nc(-c2cc(F)cc(OCC(C)CO)c2)ccc1C(=O)NS(=O)(=O)c1cccc(N)n1 (stereo not shown) [Compound 1797, N-[(6-amino-2-pyridyl)sulfonyl]-2-(2,6-dimethylphenoxy)-6-[3-fluoro-5-(3-hydroxy-2-methyl-propoxy)phenyl]pyridine-3-carboxamide] | +++ (“+++” means <3 uM) |
